Laboratory results as given in PMC8780263, “Green by Design: Convergent Synthesis, Computational Analyses, and Activity Evaluation of New FXa Inhibitors Bearing Peptide Triazole Linking Units” (Pharmaceutics, 2021).
Like-named read-outs stand apart in the source and are kept apart here.

What was measured:
FXa enzyme = FXa enzyme (Bos taurus, UniProt P00743); test: FXa in vitro inhibition assay (fluorometric SensoLyte Factor Xa Assay Kit); settings: for inhibition at 100 µM: read-out: %Inhibition FXa, inhibition percentage at 100 μM; for %Inhibition FXa: inhibition percentage at 100 μM
Chain of FXa enzyme (P00743 234-492 limits assumed): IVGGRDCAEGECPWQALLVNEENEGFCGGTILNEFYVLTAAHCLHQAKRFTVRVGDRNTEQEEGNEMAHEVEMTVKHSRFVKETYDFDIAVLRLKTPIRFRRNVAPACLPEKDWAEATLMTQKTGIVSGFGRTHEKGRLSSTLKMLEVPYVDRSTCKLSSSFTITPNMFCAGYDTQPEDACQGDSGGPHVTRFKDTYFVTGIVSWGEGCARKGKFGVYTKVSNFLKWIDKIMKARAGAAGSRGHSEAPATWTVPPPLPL
Chain of FXa enzyme (P00743 41-180 partner limits assumed): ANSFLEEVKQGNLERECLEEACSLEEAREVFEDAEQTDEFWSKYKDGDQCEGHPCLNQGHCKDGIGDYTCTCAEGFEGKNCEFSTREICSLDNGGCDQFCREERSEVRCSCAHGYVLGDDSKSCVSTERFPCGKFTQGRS
Method: The FXa inhibition capacities of the newly synthesized molecules were evaluated using the SensoLyte® 520 Factor Xa Assay Kit.

HEK293 cells = test: Cell viability analysis, CCK-8 method, HEK293; assay type: cell-based, human; settings: 48 h; 10 mM, 100 μM, 10 μM, 100 nM, 10 nM
Method: (§1) The human cell lines (HEK293 and HeLa) applied in the cell viability assays were purchased from ATCC (Manassas, VA, USA). HEK293 and HeLa cell lines were cultivated in Dulbecco’s modified Eagle medium, supplemented with 10% fetal bovine serum, 100 units/mL of penicillin and […] of streptomycin and kept at 37 °C in a humidified atmosphere containing 5% CO2. A 100-μL aliquot of adherent cells was used to seed 96-well cell culture plates at 25,000 cells/well and allowed to adhere for 16 h prior to compound addition. Cells were treated with each compound in DMEM containing 10% FBS for 48 h. Subsequently, 10 μL of Cell Counting Kit-8 reagent (CCK-8; Sigma-Aldrich, Merck KGaA, Darmstadt Germany) was added into each well and incubated for 4 h at 37 °C in a humidified atmosphere containing 5% CO2. The absorbance measurement detected the cell viability at 450 nm in a Synergy H1 microplate reader (Biotek Instruments, Winooski, VT, USA). All experiments were performed in triplicate.
(§2) Cell viability assays were performed with HeLa and HEK293 cells using the CCK-8 method. Compounds 8a, 8k, 8l and 8p were assayed with decreasing concentrations: 10 mM (1), 100 μM (2), 10 μM (3), 100 nM (4) and 10 nM (5) (Figure 6).
(§3) Figure 6 Effect of the selected compounds on cell viability using the CCK-8 assay in (A) HeLa and (B) HEK93 cell lines. Concentrations used were 10 mM (1), 100 μM (2), 10 μM (3), 100 nM (4), and 10 nM (5). The upper and lower lines define ± 2 SD limits from the average value of control wells treated only with the vehicle (DMSO 2%). All values are means ± SD (n = 3). SD: standard deviation.

HeLa cells = test: Cell viability analysis, CCK-8 method, HeLa; assay type: cell-based, human; settings: 48 h; 10 mM, 100 μM, 10 μM, 100 nM, 10 nM
Method: as §1, §2, §3

SMILES	inhibition at 100 µM (FXa enzyme) [%]	melting point [°C]	other results
O=C(Cn1cc(-c2ccccc2)nn1)Nc1ccc(N2CCCCC2=O)c(F)c1 [Compound 8a]	≥ 50		IC50 (FXa enzyme): 41.2 ± 1.2 µM; cell mortality in HEK-293 cells (cell viability, CCK-8) (HEK293 cells): did not show any cell mortality; toxicity in HeLa cells (cell viability, CCK-8) (HeLa cells): no signs of toxicity
CC(C)(C)OC(=O)N1CCN(c2ccc(NC(=O)Cn3cc(-c4ccccc4)nn3)cc2F)C(=O)C1 [Compound 8b]	24	195 to 196	
O=C(Cn1cc(-c2ccccc2)nn1)Nc1ccc(N2CCOCC2=O)c(F)c1 [Compound 8c]	17	254 to 255	
O=C(Cn1cc(-c2ccccc2)nn1)Nc1ccc(N2CCSCC2=O)c(F)c1 [Compound 8d]	33	276 to 277	
O=C(Cn1cc(-c2ccc(F)cc2)nn1)Nc1ccc(N2CCCCC2=O)c(F)c1 [Compound 8e]	17		
CC(C)(C)OC(=O)N1CCN(c2ccc(NC(=O)Cn3cc(-c4ccc(F)cc4)nn3)cc2F)C(=O)C1 [Compound 8f]			%Inhibition FXa (FXa enzyme): 44%
O=C(Cn1cc(-c2ccc(F)cc2)nn1)Nc1ccc(N2CCOCC2=O)c(F)c1 [Compound 8g]	36	273 to 274	
O=C(Cn1cc(-c2ccc(F)cc2)nn1)Nc1ccc(N2CCSCC2=O)c(F)c1 [Compound 8h]	25	266 to 267	
CC(C)(C)OC(=O)N1CCN(c2ccc(NC(=O)Cn3cc(-c4ccc(Cl)cc4)nn3)cc2F)C(=O)C1 [Compound 8j]			%Inhibition FXa (FXa enzyme): 23%
O=C(Cn1cc(-c2ccc(Cl)cc2)nn1)Nc1ccc(N2CCOCC2=O)c(F)c1 [Compound 8k]	≥ 50		IC50 (FXa enzyme): 76.2 ± 16.9 µM; cell mortality in HEK-293 cells (cell viability, CCK-8) (HEK293 cells): did not show any cell mortality; toxicity in HeLa cells (cell viability, CCK-8) (HeLa cells): no signs of toxicity
O=C(Cn1cc(-c2ccc(Cl)cc2)nn1)Nc1ccc(N2CCSCC2=O)c(F)c1 [Compound 8l]	≥ 50		IC50 (FXa enzyme): 52.9 ± 5.5 µM; cell mortality in HEK-293 cells (cell viability, CCK-8) (HEK293 cells): did not show any cell mortality; toxicity in HeLa cells (cell viability, CCK-8) (HeLa cells): no signs of toxicity
CC(C)(C)OC(=O)N1CCN(c2ccc(NC(=O)Cn3cc(-c4ccc(Br)cc4)nn3)cc2F)C(=O)C1 [Compound 8n]			%Inhibition FXa (FXa enzyme): 22%
O=C(Cn1cc(-c2ccc(Br)cc2)nn1)Nc1ccc(N2CCSCC2=O)c(F)c1 [Compound 8p]	≥ 50		IC50 (FXa enzyme): 17.2 ± 0.8 µM; cell mortality in HEK-293 cells (cell viability, CCK-8) (HEK293 cells): did not show any cell mortality; toxicity in HeLa cells (cell viability, CCK-8) (HeLa cells): no signs of toxicity
CCOC(=O)c1ccc(OC(=O)CCCCCN=C(N)N)cc1.CS(=O)(=O)O [Gabexate mesylate, reference compound]			IC50 (FXa enzyme; FXa, dilution series 1 nM to 100 μM, triplicates): 0.34 ± 0.1 µM; %Inhibition FXa (FXa enzyme): 93%

Continued, in another order:

inhibition at 100 µM (FXa enzyme) [%]	melting point [°C]	SMILES	other results
29	302 to 303	O=C(Cn1cc(-c2ccc(Cl)cc2)nn1)Nc1ccc(N2CCCCC2=O)c(F)c1 [Compound 8i]	
29	300 to 301	O=C(Cn1cc(-c2ccc(Br)cc2)nn1)Nc1ccc(N2CCCCC2=O)c(F)c1 [Compound 8m]	
37	302 to 303	O=C(Cn1cc(-c2ccc(Br)cc2)nn1)Nc1ccc(N2CCOCC2=O)c(F)c1 [Compound 8o]	
21	301 to 302	Cc1ccc(-c2cn(CC(=O)Nc3ccc(N4CCCCC4=O)c(F)c3)nn2)cc1 [Compound 8q]	
27	204 to 205	Cc1ccc(-c2cn(CC(=O)Nc3ccc(N4CCN(C(=O)OC(C)(C)C)CC4=O)c(F)c3)nn2)cc1 [Compound 8r]	
37	282 to 283	Cc1ccc(-c2cn(CC(=O)Nc3ccc(N4CCOCC4=O)c(F)c3)nn2)cc1 [Compound 8s]	
31	285 to 286	Cc1ccc(-c2cn(CC(=O)Nc3ccc(N4CCSCC4=O)c(F)c3)nn2)cc1 [Compound 8t]	
